Results: patent US10092648B2, “Selective glucagon-like-peptide-2 (GLP-2) analogues” (Zealand Pharma A/S, priority 2006, dated 2018)

Experiments:
male C57BL mice [1] = assay: In vivo stimulation of intestinal growth, 200 nmol/kg (Example 11); conditions: for Sensitivity index Si/Colon: relative to 1559
Method: The ability of further compounds to selectively stimulate small intestinal mass, relative to colon mass was determined in male C57BL mice. A similar protocol was used to that described above in Example 10 except that 200 nmol/kg of each compound was administered per day. Thus, individual groups (n=6-10) of mice were given 200 nmol/kg of each compound, s.c, once daily for three consecutive days. Other groups of animals were given either an equimolar dose of [[…]]GLP-2 (reference compound) or vehicle (phosphate buffered saline, pH 7.4; negative controls) in the same dosing regimen. Twenty-four hours after the last dose of compound the mice were sacrificed and the stomach, small intestine and the colon emptied and weighed.

male C57BL mice [2] = assay: In vivo stimulation of stomach growth, 200 nmol/kg (Example 12)
Method: The effects of the test compounds according to the invention were determined based on the ability of the peptides to selectively increase stomach mass, relative to vehicle control. The ability of the present compounds (ZP2395, ZP2396, ZP2400, ZP2412, ZP2394 and ZP2401) to selectively stimulate stomach mass, relative to colon mass was determined in male C57BL mice. Individual groups (n=6-10) of mice were given 200 nmol/kg of each compound, s.c, once daily for three consecutive days. For comparison purposes other groups of animals were given either an equimolar dose of [[…]]GLP-2 or vehicle (phosphate buffered saline, pH 7.4) in the same dosing regimen. Twenty-four hours after the last dose of compound had been given the mice were sacrificed and the stomach and small intestine (from the pylorus to the ileocaecal junction) emptied and weighed. To correct for slight difference in body weight (BW), the organ mass of the stomach is presented relative to BW. […] To evaluate the differential growth pattern induced by ZP compounds, compared to [[…]]GLP-2, on the stomach, the stomach-colon sensitivity index of compound X was calculated as: (Stomach/Colon)x/Stomach/(Colon)[[…]]GLP-2% Compounds with a stomach/colon sensitivity greater than or equal to 1.05 were considered relatively selective for the stomach.

[3] = 200 nmol/kg s.c. once daily for 3 days
[4] = colon weight relative to body weight, relative to ZP1559
[5] = small intestine weight relative to body weight, relative to ZP1559
[6] = 200 nmol/kg s.c. once daily for 3 days, relative to 1559

| Substance | Colon-BW, compared to 1559 in % (male C57BL mice [1]; [3]) [%] | SI-BW, compared to 1559 in % (male C57BL mice [1]; [3]) [%] | Sensitivity index Si/Colon (male C57BL mice [1]; [3]) | Colon-BW, compared to 1559 in % (male C57BL mice [1]; [4]) [%] | SI-BW, compared to 1559 in % (male C57BL mice [1]; [5]) [%] | Preferential stimulation of epithelial growth in the stomach (summary) (male C57BL mice [2]; [3]) | Selectivity for stomach mass relative to colon mass (FIG. 7) (male C57BL mice [2]; [3]) | Sto-BW, compared to 1559 in % (male C57BL mice [2]; [3]) [%] | Sensitivity index Stomach/Co (male C57BL mice [2]; [6]) | Sensitivity index Stomach/Co (male C57BL mice [2]; ratio Stomach-BW / Colon-BW) | Organ selectivity (FIG. 8, unselective compounds) (male C57BL mice [1]; [3]) | Preferential stimulation of epithelial growth in the small intestine (summary) (male C57BL mice [1]; [3]) | Selectivity for small intestinal mass relative to colon mass (FIG. 6) (male C57BL mice [1]; [3]) |
| --- | --- | --- | --- | --- | --- | --- | --- | --- | --- | --- | --- | --- | --- |
| H-HGEGSFSDELLTILELLAASDFISWLISTKITD-NH2 [ZP2400] | 106 | 106 | 1.00 | 106 | 106 | preferentially stimulating epithelial growth in the stomach | selectively increase stomach mass, relative to colon mass | 111 | 1.05 | 1.05 |  |  |  |
| H-HGEGSFSDELKTILESLAAADFIEWLIQTKITDKKKKKK-NH2 [ZP2379] | 97 | 88 | 0.91 |  |  |  |  | 99 | 1.02 |  | unselective for the small intestine, colon or stomach |  |  |
| H-HGEGSFSDELATILESLAAADFIAWLIATKITD-NH2 [ZP2414] | 106 | 105 | 0.99 |  |  |  | selectively increase stomach mass, relative to colon mass | 110 | 1.04 |  | unselective for the small intestine, colon or stomach |  |  |
| H-HGEGSFSDELATILEALAAADFIAWLISTKITDKKKKKK-NH2 [ZP2384] | 118 | 128 | 1.08 | 118 | 128 |  |  | 100 | 0.85 | 0.85 |  | preferentially stimulating epithelial growth in the small intestine | selectively increase small intestinal mass, relative to colon mass |
| H-HGEGSFSDELATILESLAASDFISWLISTKITD-NH2 [ZP2399] | 103 | 119 | 1.16 | 103 | 119 |  |  | 115 | 1.12 | 1.12 |  | preferentially stimulating epithelial growth in the small intestine | selectively increase small intestinal mass, relative to colon mass |
| H-HGEGSFSDELLTILELLAAADFIAWLIATKITDKKKKKK-NH2 [ZP2412] | 99 | 94 | 0.95 | 99 | 94 | preferentially stimulating epithelial growth in the stomach | selectively increase stomach mass, relative to colon mass | 106 | 1.07 | 1.07 |  |  |  |
| H-HGEGSFSDELATILESLAAADFISWLIATKITDKKKKKK-NH2 [ZP2413] | 117 | 116 | 0.99 |  |  |  |  | 108 | 0.92 |  | unselective for the small intestine, colon or stomach |  |  |
| H-HGEGSFSDELSTILEALAAADFIAWLIATKITDKKKKKK-NH2 [ZP2404] | 115 | 114 | 0.99 |  |  |  |  | 103 | 0.90 |  | unselective for the small intestine, colon or stomach |  |  |
| H-HGEGSFSDELLTILELLAALDFILWLILTKITDKKKKKK-NH2 [ZP2424] | 98 | 86 | 0.88 |  |  |  |  | 91 | 0.93 |  | unselective for the small intestine, colon or stomach |  |  |
| H-HGEGSFSDELETILEELAAEDFIEWLIETKITDKKKKKK-NH2 [ZP2378] | 97 | 91 | 0.94 |  |  |  |  | 94 | 0.97 |  | unselective for the small intestine, colon or stomach |  |  |
| H-HGEGSFSDELATILEALAAADFISWLIATKITDKKKKKK-NH2 [ZP2411] | 111 | 117 | 1.05 | 111 | 117 |  |  | 106 | 0.95 | 0.95 |  | preferentially stimulating epithelial growth in the small intestine | selectively increase small intestinal mass, relative to colon mass |
| H-HGEGSFSDELFTILEFLAASDFISWLISTKITD-NH2 [ZP2401] | 88 | 98 | 1.11 | 88 | 98 | preferentially stimulating epithelial growth in the stomach | selectively increase stomach mass, relative to colon mass | 107 | 1.22 | 1.22 |  |  |  |
| H-HGEGSFSDELKTILEKLAAKDFIKWLIKTKITDKKKKKK-NH2 [ZP2395] | 97 | 98 | 1.01 | 97 | 98 | preferentially stimulating epithelial growth in the stomach | selectively increase stomach mass, relative to colon mass | 113 | 1.16 | 1.16 |  |  |  |
| H-HGEGSFSDELSTILESLAAADFIAWLIATKITDKKKKKK-NH2 [ZP2403] | 109 | 110 | 1.01 |  |  |  |  | 107 | 0.98 |  | unselective for the small intestine, colon or stomach |  |  |
| H-HGEGSFSDELLTILELLAALDFIAWLIATKITDKKKKKK-NH2 [ZP2416] | 92 | 89 | 0.97 |  |  |  | selectively increase stomach mass, relative to colon mass | 96 | 1.04 |  | unselective for the small intestine, colon or stomach |  |  |
